Two compounds from patent EP4501917A1, “3,4-DIHYDROQUINOXALINE-2-CARBOXIMIDE DERIVATIVE COMPOUND AND PHARMACEUTICAL COMPOSITION COMPRISING SAME FOR PREVENTING OR TREATING CANCER DISEASE” (Daegu-Gyeongbuk Medical Innovation Foundation, priority 2022, dated 2023) can be followed below.

One assay deals with T1, HDAC11 (Homo sapiens, UniProt Q96DB2).
T1 sequence (Q96DB2 1-347): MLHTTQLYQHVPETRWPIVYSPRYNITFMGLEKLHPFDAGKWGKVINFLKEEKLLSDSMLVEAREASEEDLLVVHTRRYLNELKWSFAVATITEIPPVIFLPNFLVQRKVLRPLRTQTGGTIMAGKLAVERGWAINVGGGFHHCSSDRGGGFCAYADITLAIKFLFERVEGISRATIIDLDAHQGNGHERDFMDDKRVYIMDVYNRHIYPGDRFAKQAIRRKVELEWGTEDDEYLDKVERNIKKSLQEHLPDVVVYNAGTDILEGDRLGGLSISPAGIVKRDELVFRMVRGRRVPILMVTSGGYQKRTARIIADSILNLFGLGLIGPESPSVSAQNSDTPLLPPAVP
The experiment in a line: Selective HDAC inhibition, HDAC Fluorogenic assay kit. Conditions: read-out: HDAC11 enzyme activity (%).

The next assay has as its target HDAC9 (Homo sapiens, UniProt Q9UKV0). The assay is described as above. Conditions: read-out: HDAC9 enzyme activity (%).
In another assay the target is T2, HDAC6 (Homo sapiens, UniProt Q9UBN7).
T2 sequence (Q9UBN7 1-1215): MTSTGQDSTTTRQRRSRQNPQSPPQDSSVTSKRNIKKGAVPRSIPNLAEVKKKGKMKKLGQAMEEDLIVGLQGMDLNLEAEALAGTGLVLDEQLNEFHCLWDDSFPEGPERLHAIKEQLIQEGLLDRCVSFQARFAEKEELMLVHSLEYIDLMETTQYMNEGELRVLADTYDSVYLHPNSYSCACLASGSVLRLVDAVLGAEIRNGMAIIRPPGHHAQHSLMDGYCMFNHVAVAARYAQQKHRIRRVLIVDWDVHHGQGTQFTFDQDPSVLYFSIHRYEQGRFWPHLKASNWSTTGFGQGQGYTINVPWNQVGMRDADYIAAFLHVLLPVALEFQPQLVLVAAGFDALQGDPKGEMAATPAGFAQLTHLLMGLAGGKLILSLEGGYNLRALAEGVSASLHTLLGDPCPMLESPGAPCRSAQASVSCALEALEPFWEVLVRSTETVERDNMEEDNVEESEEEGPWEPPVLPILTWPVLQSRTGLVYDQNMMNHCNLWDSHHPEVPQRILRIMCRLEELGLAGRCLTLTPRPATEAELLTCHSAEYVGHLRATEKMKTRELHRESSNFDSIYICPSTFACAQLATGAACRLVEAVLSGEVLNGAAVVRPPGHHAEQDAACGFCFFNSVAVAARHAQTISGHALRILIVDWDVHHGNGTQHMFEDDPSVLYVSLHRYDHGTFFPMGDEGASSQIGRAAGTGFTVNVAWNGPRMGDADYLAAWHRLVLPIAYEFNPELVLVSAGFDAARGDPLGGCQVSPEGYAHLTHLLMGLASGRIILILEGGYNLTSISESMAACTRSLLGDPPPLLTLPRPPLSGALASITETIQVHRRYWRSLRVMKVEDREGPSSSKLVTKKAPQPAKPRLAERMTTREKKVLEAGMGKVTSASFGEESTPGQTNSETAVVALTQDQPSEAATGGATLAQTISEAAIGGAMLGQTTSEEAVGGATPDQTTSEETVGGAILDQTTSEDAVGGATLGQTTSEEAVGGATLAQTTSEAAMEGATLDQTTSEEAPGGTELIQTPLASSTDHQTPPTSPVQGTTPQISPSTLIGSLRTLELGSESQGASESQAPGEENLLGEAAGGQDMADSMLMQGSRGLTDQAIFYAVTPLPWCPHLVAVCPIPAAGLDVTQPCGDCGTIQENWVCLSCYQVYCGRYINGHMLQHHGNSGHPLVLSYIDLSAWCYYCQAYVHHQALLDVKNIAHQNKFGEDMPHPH
The description is as above. Conditions: final concentration 10 µM; HDAC substrate 3 200 µM; positive control (1% DMSO) set to 100.

In the next assay the target is HDAC4 (Homo sapiens, UniProt P56524). The description is as above. The following applies: read-out: HDAC4 enzyme activity (%).
In assay [1] the target is T3, HDAC8 (Homo sapiens, UniProt Q9BY41).
T3 construct: purchased BPS bioscience
T3 sequence (Q9BY41 1-377): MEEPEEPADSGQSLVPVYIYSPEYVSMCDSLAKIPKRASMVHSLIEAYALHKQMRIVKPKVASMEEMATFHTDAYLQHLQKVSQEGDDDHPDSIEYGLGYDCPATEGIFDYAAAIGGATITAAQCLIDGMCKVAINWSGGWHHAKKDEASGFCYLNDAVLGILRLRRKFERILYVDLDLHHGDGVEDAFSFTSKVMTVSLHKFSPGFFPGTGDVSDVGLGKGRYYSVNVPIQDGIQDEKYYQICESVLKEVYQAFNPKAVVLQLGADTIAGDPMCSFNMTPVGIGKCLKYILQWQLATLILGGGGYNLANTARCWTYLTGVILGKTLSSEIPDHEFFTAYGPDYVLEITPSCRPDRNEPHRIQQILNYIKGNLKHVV
In words: HDAC8 inhibitory activity analysis (in vitro), RFU analysis, HDAC Fluorogenic assay kit. The assay is classed as biochemical. Conditions: for RFU (%): compound final concentration 10 µM, HDAC substrate 2A 20 µM, positive control (1% DMSO) set to 100, lower = more inhibition.
Protocol: The compound of the Example was diluted to 1 mM (1% DMSO concentration) using DMSO to obtain a final concentration of 10 µM, and prepared by diluting 1/10 with assay buffer. In a 96-well black round-bottom plate, 5 µL of the diluted compound of the Example, 5 µL of the diluted HDAC substrate 2A, 5 µL of BSA (1 mg/mL), 5 µL of the HDAC8 enzyme diluted to an appropriate concentration, and 30 µL of assay buffer were added, and the enzyme reaction was performed at 37°C for 30 minutes. […] Afterwards, 50 µL of 2X HDAC developer was added to each well. After reacting for 15 minutes at room temperature, the fluorescence values at excitation wavelengths of 350-380 nm and emission wavelengths of 440-460 nm were measured using a microplate reader (Synergy Neo).

Assay [2] has as its target T3, HDAC8. The experiment in a line: Selective HDAC inhibition, HDAC Fluorogenic assay kit. The assay is classed as biochemical. Conditions: final concentration 10 µM; HDAC substrate 2A 20 µM; positive control (1% DMSO) set to 100; read-out: HDAC8 enzyme activity (%).
Protocol: (§1) For analysis, HDAC substrate 3 was diluted in buffer to a concentration of 200 µM and used in HDAC 1, 2, 3, 6, and 10 assays, HDAC substrate 2A was diluted in buffer to a concentration of 200 µM and used in HDAC 4, 7, 9, and 11 assays, HDAC substrate 2A was diluted in buffer to a concentration of 20 µM and used in HDAC 8 assays. For the HDAC 11 assay, a dedicated buffer included in the kit was used separately, and the same buffer was used for the remaining assays. The compound of the Example was diluted to 1 mM (1% DMSO concentration) using DMSO to obtain a final concentration of 10 µM, and prepared by diluting 1/10 with assay buffer. In a 96-well black round-bottom plate, 5 µL of the diluted compound of the Example, 5 µL of the diluted HDAC substrate, 5 µL of BSA (1 mg/ml), 5 µL of the HDAC enzyme diluted to the appropriate concentration, and 30 µL of assay buffer were added, and the enzyme reaction was performed at 37°C for 30 minutes. […] Afterwards, 50 µL of 2X HDAC developer was added to each well. After reacting for 15 minutes at room temperature, the fluorescence values at excitation wavelengths of 350-380 nm and emission wavelengths of 440-460 nm were measured using a microplate reader (Synergy Neo).
The target of the next assay is HDAC1 (Homo sapiens, UniProt Q13547). Described as above. The following applies: final concentration 10 µM; HDAC substrate 3 200 µM; positive control (1% DMSO) set to 100.
A further assay has as its target HDAC2 (Homo sapiens, UniProt Q92769). The assay is described as above. Conditions: final concentration 10 µM; HDAC substrate 3 200 µM; positive control (1% DMSO) set to 100.
The target in a further assay is T4, HDAC10 (Homo sapiens, UniProt Q969S8).
T4 sequence (Q969S8 1-669): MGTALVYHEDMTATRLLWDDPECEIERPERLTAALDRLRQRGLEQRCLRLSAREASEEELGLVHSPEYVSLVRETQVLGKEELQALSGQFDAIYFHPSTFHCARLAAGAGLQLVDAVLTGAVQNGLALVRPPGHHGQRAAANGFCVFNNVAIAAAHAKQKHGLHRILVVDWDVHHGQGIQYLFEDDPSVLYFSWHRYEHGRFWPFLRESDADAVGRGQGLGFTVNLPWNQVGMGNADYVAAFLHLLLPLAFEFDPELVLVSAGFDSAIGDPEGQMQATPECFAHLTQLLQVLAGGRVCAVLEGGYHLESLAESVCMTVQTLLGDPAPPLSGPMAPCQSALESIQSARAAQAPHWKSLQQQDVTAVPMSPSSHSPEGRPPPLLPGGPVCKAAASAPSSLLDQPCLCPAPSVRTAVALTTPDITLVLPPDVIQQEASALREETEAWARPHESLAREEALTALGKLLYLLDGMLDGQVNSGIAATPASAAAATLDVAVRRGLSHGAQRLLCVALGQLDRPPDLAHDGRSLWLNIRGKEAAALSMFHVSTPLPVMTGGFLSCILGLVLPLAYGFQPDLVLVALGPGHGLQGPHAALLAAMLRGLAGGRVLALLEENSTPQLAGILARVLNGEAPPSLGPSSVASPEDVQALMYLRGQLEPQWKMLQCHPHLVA
The description is as above. The following applies: final concentration 10 µM; HDAC substrate 3 200 µM; positive control (1% DMSO) set to 100.

For another assay, the system named is Liver cancer cells Huh-7. In words: Liver cancer cell growth inhibition, CellTiter-Glo Luminescent Cell Viability Assay. The assay is classed as cell-based. Conditions: Huh-7 cells, various concentrations, day 1, FIG. 6; result in words. The method, then:
In addition, an analysis of liver cancer growth inhibitory activity was performed. Liver cancer cells Huh-7 cells were dispensed in a 96-well plate at 1 × 10^4 cells/ml, and after 20 hours, PCI34051, Example 27, and Example 35 were added at various concentrations, and cultured for 24 and 48 hours at 37°C in a 5% CO2 atmosphere. After culturing, 100 µl CellTiter-Glo Luminescent Cell Viability Assay reagent was added and the luminescence signal was measured after 0.5-1 hour. The luminescence signal was measured using IVIS [PerkinElmer, (Waltham, USA)].
Background: In ATP-based viability assays light output follows the ATP content of the culture.

Assay [3] relates to PC-3 prostate cancer cells. The experiment in a line: Prostate cancer cell growth inhibition, CCK-8 assay. The assay is classed as cell-based, human. The following applies: PC-3 cells, FIG. 1, result in words. The method, then: PC-3, a human-derived prostate cancer cell line, was cultured with RPMI1640 (10% fetal bovine serum, 1% Penicillin Streptomycin) culture medium at 37°C, 5% CO2 condition. All cells in the experiment were subcultured when they reached a confluency of approximately 80% to 90%, and only cells that had not passed 20 passages were used.
After culturing, 10 µL CCK-8 reagent was added and the absorbance was measured after 1 hour. The absorbance was measured at 450 nm using a microplate reader [BMG Labtech (Offenburg, Germany)].

Sequence of HDAC2 (Q92769 whole entry): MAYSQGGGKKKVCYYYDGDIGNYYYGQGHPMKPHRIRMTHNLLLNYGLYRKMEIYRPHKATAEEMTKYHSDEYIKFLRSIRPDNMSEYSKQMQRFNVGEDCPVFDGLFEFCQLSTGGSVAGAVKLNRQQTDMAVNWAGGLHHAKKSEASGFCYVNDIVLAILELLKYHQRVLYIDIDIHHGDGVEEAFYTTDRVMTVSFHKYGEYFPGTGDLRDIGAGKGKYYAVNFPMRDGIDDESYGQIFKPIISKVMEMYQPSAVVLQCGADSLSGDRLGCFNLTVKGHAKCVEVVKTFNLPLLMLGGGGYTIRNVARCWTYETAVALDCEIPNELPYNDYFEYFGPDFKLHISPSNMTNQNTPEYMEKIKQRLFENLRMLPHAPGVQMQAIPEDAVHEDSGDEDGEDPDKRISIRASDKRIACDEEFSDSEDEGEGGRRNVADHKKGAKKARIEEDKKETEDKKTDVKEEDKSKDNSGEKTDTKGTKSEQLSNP
Sequence of HDAC1 (Q13547 whole entry): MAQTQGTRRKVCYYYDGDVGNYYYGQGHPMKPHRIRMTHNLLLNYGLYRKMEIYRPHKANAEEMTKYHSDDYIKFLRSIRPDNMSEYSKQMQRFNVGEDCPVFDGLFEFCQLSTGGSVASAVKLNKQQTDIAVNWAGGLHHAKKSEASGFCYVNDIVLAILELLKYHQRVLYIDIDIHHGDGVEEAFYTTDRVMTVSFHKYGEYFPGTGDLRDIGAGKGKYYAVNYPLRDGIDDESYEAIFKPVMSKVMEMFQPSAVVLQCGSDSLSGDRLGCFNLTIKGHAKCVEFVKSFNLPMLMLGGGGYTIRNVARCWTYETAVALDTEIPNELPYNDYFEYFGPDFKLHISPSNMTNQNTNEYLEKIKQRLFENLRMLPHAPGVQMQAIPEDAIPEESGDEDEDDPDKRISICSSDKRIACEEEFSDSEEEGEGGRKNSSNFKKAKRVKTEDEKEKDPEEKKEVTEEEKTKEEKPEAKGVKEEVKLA
Sequence of HDAC4 (P56524 whole entry): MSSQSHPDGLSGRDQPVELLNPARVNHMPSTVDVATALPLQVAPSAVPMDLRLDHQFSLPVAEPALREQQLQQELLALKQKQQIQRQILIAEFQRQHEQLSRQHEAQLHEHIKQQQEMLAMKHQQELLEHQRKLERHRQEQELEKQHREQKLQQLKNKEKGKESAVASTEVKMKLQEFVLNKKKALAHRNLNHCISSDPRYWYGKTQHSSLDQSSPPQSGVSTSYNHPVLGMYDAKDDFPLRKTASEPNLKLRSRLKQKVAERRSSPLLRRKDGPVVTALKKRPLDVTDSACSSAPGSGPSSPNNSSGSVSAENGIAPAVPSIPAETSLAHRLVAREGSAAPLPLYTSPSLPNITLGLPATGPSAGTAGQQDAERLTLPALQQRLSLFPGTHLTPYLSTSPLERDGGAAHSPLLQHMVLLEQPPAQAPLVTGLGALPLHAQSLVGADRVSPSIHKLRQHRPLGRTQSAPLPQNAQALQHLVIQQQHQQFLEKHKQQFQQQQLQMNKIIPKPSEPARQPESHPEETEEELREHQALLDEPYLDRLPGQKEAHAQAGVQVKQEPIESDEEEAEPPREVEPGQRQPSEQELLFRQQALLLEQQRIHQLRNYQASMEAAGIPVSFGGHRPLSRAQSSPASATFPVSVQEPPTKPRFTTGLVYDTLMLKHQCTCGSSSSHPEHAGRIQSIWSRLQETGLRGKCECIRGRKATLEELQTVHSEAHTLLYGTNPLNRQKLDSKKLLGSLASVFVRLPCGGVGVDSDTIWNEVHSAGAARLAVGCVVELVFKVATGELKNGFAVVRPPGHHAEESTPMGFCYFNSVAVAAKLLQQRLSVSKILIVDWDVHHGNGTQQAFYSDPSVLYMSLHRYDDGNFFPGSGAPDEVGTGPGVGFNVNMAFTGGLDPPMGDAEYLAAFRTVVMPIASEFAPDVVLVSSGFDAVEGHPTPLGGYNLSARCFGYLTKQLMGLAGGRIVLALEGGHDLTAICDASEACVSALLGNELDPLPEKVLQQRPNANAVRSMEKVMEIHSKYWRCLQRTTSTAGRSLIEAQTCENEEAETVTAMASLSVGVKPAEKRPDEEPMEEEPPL
Sequence of HDAC9 (Q9UKV0 whole entry): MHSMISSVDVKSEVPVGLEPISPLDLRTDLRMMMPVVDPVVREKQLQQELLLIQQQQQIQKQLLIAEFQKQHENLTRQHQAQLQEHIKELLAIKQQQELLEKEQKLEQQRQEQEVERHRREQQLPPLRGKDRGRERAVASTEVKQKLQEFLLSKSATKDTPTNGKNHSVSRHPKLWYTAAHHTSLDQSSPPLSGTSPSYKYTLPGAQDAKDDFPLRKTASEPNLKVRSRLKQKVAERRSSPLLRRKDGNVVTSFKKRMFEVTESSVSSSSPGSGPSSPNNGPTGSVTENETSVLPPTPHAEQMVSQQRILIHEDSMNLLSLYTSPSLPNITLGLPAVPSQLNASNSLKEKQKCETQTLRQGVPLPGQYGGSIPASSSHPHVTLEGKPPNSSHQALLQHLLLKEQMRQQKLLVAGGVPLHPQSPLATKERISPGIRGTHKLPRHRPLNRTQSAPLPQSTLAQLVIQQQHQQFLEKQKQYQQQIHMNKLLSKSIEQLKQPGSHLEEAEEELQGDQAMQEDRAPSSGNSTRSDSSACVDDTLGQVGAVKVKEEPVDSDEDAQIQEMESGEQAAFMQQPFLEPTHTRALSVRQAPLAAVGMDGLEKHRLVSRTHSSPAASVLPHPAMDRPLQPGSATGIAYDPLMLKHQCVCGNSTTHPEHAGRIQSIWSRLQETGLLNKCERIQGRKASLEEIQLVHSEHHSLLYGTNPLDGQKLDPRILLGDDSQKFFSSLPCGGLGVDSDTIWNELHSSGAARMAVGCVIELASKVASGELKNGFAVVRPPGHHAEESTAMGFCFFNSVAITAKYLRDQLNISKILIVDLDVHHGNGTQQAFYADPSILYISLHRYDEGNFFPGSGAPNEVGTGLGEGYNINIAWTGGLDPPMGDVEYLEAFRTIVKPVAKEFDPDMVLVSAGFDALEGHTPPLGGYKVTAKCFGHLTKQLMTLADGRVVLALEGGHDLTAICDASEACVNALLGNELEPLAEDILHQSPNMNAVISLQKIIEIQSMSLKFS
Protocol for HDAC10: as §1
Protocol for HDAC11: as §1
Protocol for HDAC2: as §1
Protocol for HDAC4: as §1
Protocol for HDAC6: as §1
Protocol for HDAC9: as §1

Turning to `CC(/C=C/C(=O)NO)=C\[C@@H](C)C(=O)c1ccc(N(C)C)cc1` [TSA, Trichostatin A, reference compound], the remaining activity at 10 µM is 59.1% at HDAC11, 21.5% at HDAC9, 18.8% on HDAC4 and 11.1% at HDAC8 [2]. The “HDAC6 enzyme activity (%)” value at HDAC6 was found to be 1.11%. The “RFU (%)” value at HDAC8 [1] was determined as 13.83%. Also, on HDAC1, the “HDAC1 enzyme activity (%)” value amounted to 1.22%. For the same compound, the “HDAC2 enzyme activity (%)” value at HDAC2 is recorded as 0.70%. Also, on HDAC10, the “HDAC10 enzyme activity (%)” value stood at 1.21%.
For the compound `Cc1cc2nc(C(=O)Nc3nc4c(F)cccc4[nH]3)c(=O)n(C[C@H](O)[C@H](O)[C@H](O)CO)c2cc1C` [Example 35, N-(4-fluoro-1H-benzo[d]imidazol-2-yl)-6,7-dimethyl-3-oxo-4-((2S,3S,4R)-2,3,4,5-tetrahydroxypentyl)-3,4-dihydroquinoxaline-2-carboxamide], the cell viability entry is “concentration-dependent inhibition of cancer cell viability” with Liver cancer cells Huh-7, “concentration-dependent inhibition of cancer cell viability” in assay [3] (after 24 hours) and “cell viability was restored” in assay [3] (after 48 hours). The “RFU (%)” value at HDAC8 [1] was found to be 8.23%. Also, on HDAC8 [1] (result in words, summary of Table 2, 10 µM), the “inhibitory activity against HDAC8” value was “inhibitory activity similar to TSA or SAHA”.
